Here are results for six compounds from patent US10975060B2, “High relaxivity gadolinium chelate compounds for use in magnetic resonance imaging” (BAYER PHARMA AKTIENGESELLSCHAFT, priority 2016, dated 2021).

Like-named read-outs stand apart in the source and are kept apart here.

For data set [1] the following is noted: 37 °C, cited from earlier work.
The nature of data set [2]: Dynamic CT diffusion phantom study (dialysis cassette in fetal bovine serum). Format: physicochemical. Conditions: dialysis cassette 20,000 MWCO, 20 mmol Gd/L, CT signal over 30 h. The method, then: The described dynamic CT diffusion study compares the ability of Examples 1-10 and Reference compounds 1 and 4 to pass a semipermeable membrane (20 kDa). A 128-row clinical CT device (SOMATOM Definition, 128; Siemens Healthcare, Forchheim, Germany) was used to monitor the diffusion through a semipermeable membrane at 100 kV and 104 mA. Single measurements were performed at 0 min, 1 min, 2 min, 3 min, 5 min, 10 min, 15 min, 20 min, 30 min, 45 min, 60 min, 2 h, 3 h, 5 h, 7 h, 22 h, 24 h, 30 h after placing the dialysis cassette (Slide-A-Lyser, 20,000 MWCO, 0.1-0.5 mL Capacity, Thermo Scientific, Roskilde, Denmark) filled with contrast agent in fetal bovine serum solution (FBS, Sigma, F7524). The images were reconstructed with a slice thickness of 2.4 mm and a B30 convolution kernel. The used concentration in the dialysis cassettes of the investigated Examples 1-10 and Reference compounds 1 and 4 was 20 mmol Gd/L.
The imaging results for all investigated Examples and the Reference compounds 1 and 4 for the time points 0 min and 30 h after placing the cassettes in the FBS solution are depicted in FIG. 1. For image analysis, regions of interest were manually drawn on 1 centrally located slice for each time point (a representative measurement region is indicated in FIG. 1: Image RC1).

The nature of data set [3]: Water solubility (exploratory, 10 mM Tris-HCl, 20 °C). As to conditions: water (10 mM Tris-HCl buffer), pH 7.4. Format: physicochemical. The method, then:
The exploratory water solubilities of the compounds were determined at room temperature (20° C.) in 0.5 mL buffer solution (10 mM Tris-HCl) in the microcentrifuge tubes (Eppendorf, 2.0 mL safe-lock caps). The solid compounds were added stepwise to the buffer solution. The suspension was mixed using a shaker (Heidolph Reax 2000) and treated 5 min in an ultrasound bath (Bandelin, Sonorex Super RK255H).

A short description of data set [4]: Relaxivity measurements at 3.0 T (whole body MRI scanner, 37 °C) in water and human plasma. Format: physicochemical. Conditions: normalized to Gd, average ± standard deviation. Here is the method: Relaxivity Measurements at 3.0 T
Relaxivity measurements at 3.0 T were performed with a whole body 3.0 T MRI Scanner (Philips Intera, Philips Healthcare, Hamburg, Germany) using a knee-coil (SENSE-Knee-8, Philips Healthcare, Hamburg, Germany). The sample tubes (CryoTubetm Vials, Thermo Scientific 1.8 mL, Roskilde, Denmark) were positioned in 3 rows of 4 and 5 tubes in a plastic holder in a box filled with water. The temperature was adjusted to 37° C. For the MRI sequence the shortest possible echo-time (TE) with 7.46 milliseconds was used. The inversion times were chosen to optimize the sequence to measure T1 values corresponding to the estimated T1 range of all relaxation times of contrast media containing solutions. The following inversion times (TIs) were applied: 50, 100, 150, 200, 300, 500, 700, 1000, 1400, 2100, 3200, and 4500 milliseconds. The sequence was run with a constant relaxation delay of 3.4 seconds after the registration of the last echo (variable TR in the range from 3450 to 7900 milliseconds). For details of the fit procedure, see Rohrer et. al. (Invest. Radiol. 2005; 40, 11: 715-724). The experimental matrix of the phantom measurement was 320×320.
The relaxivities were evaluated using three different concentrations of each compound (3 concentrations between 0.05 and 2 mM).
The T1 relaxation times of Example compounds were measured in water and human plasma. Human plasma preparation: For each experiment fresh blood was taken from a volunteer using 10 mL citrate-tubes (Sarstedt S-Monovette 02.1067.001, 10 mL, Citrate). The 10 mL citrate-tubes were carefully inverted 10 times to mix blood and anticoagulant and centrifuged for 15 minutes at 1811 g at room temperature (Eppendorf, Centrifuge 5810R).
The relaxivities ri (where i=1, 2) were calculated on the basis of the measured relaxation rates Ri in water and plasma: Ri=Ri(0)+ri[CGd], where Ri(0) represent the relaxation rate of the respective solvent and CGd the concentration of the compound normalized to the Gadolinium (Table 2).

Data set [5] can be described thus: Relaxivity measurements at 1.4 T (MiniSpec mq60, 60 MHz, 37 °C) in water and human plasma. Format: physicochemical. As to conditions: 1.41 T, normalized to Gd. Here is the method:
Relaxivity Measurements at 1.4 T
Relaxivity measurements at 1.41 T were performed using a MiniSpec mq60 spectrometer (Bruker Analytik, Karlsruhe, Germany) operating at a resonance frequency of 60 MHz and a temperature of 37° C. The T1 relaxation times were determined using the standard inversion recovery (IR) method with a fixed relaxation delay of at least 5×T1. The variable inversion time (TI) was calculated automatically by the standard software of the MiniSpec mq60 (8 steps). The T2 measurements were done by using a Carr-Purcell-Meiboom-Gill (CPMG) pulse sequence, applying a relaxation delay of at least 5×T1.
Each relaxivity measurement was performed using three different Gd concentrations (3 concentrations between 0.05 and 2 mM). The T1 and T2 relaxation times of the example compounds 1 to 10 were measured in different media for example in water and human plasma. Human plasma preparation: For each experiment fresh blood was taken from a volunteer using 10 mL citrate-tubes (Sarstedt S-Monovette 02.1067.001, 10 mL, Citrate). The 10 mL citrate-tubes were carefully inverted 10 times to mix blood and anticoagulant and centrifuged for 15 minutes at 1811 g at room temperature (Eppendorf, Centrifuge 5810R).
The relaxivities ri (where i=1, 2) were calculated on the basis of the measured relaxation rates Ri in water and plasma: Ri=Ri(0)+ri[CGd], where Ri(0) represent the relaxation rate of the respective solvent and CGd the concentration of the compound normalized to the Gadolinium. The Gadolinium concentrations of the investigated solutions were verified by Inductively Coupled Plasma Mass Spectrometry (ICP-MS Agilent 7500a, Waldbronn, Germany).

Setting [6] is: 1.5 T, bovine plasma instead of human plasma, from Rohrer et al.
The mark [7] stands for this setting: 3.0 T, plasma, reference compounds marked ^ (Rohrer et al., bovine plasma per Table 1 footnote).
[8] abbreviates: 3.0 T, reference compounds marked ^ (Rohrer et al. per Table 1 footnote).

As for Gadomer-17 [RC4], the r1 human plasma in data set [1] (setting [6]) was 16 L/mmol/s; in data set [1] (setting [7]), 13 ± 1 L/mmol/s. Also, the r1 water in data set [1] (1.5 T, from Rohrer et al.) was 17.3 L/mmol/s; in data set [1] (setting [8]), 13.0 ± 0.7 L/mmol/s. Besides, the “Diffusion half-live (20 kDa)” value in data set [2] is recorded as “No diffusion”.

In the case of `COCCN(CC(=O)NCC(CNC(=O)CN(CCOC)C(=O)CN1CCN(CC(=O)[O-])CCN(CC(=O)[O-])CCN(CC(=O)[O-])CC1)(CNC(=O)CN(CCOC)C(=O)CN1CCN(CC(=O)[O-])CCN(CC(=O)[O-])CCN(CC(=O)[O-])CC1)CNC(=O)CN(CCOC)C(=O)CN1CCN(CC(=O)[O-])CCN(CC(=O)[O-])CCN(CC(=O)[O-])CC1)C(=O)CN1CCN(CC(=O)[O-])CCN(CC(=O)[O-])CCN(CC(=O)[O-])CC1.[Gd+3].[Gd+3].[Gd+3].[Gd+3]` [Example 3, Tetragadolinium {4,10-bis(carboxylatomethyl)-7-[15-(2-methoxyethyl)-10,10-bis[({[(2-methoxyethyl){[4,7,10-tris(carboxylatomethyl)-1,4,7,10-tetraazacyclododecan-1-yl]-acetyl}amino]acetyl}amino)methyl]-7,13,16-trioxo-5-{[4,7,10-tris(carboxylatomethyl)-1,4,7,10-tetraazacyclododecan-1-yl]acetyl}-2-oxa-5,8,12,15-tetraazaheptadecan-17-yl]-1,4,7,10-tetraazacyclododecan-1-yl}acetate], the Solubility in data set [3] is reported as over 1000 mg/100 mL. Also, the r1 human plasma in data set [4] (human plasma) amounted to 10.9 ± 0.1 L/mmol/s; in data set [5], 11.7 L/mmol/s. The r1 water in data set [4] (water) worked out at 9.5 ± 0.1 L/mmol/s; in data set [5], 10.3 L/mmol/s. For the same compound, the “Diffusion half-live (20 kDa)” value in data set [2] came to 11.6 h.

For `CNC[C@H](O)[C@@H](O)[C@H](O)[C@H](O)CO.CNC[C@H](O)[C@@H](O)[C@H](O)[C@H](O)CO.O=C([O-])CN(CCN(CC(=O)[O-])CC(=O)O)CCN(CC(=O)[O-])CC(=O)O.[Gd+3]` [RC2, gadopentetate dimeglumine], the r1 human plasma in data set [1] (setting [6]) was 4.1 L/mmol/s; in data set [1] (setting [7]), 3.7 ± 0.2 L/mmol/s. Also, the r1 water in data set [1] (1.5 T, from Rohrer et al.) is 3.3 L/mmol/s; in data set [1] (setting [8]), 3.1 ± 0.3 L/mmol/s.

In the case of `CCOc1ccc(CC(CN(CCN(CC(=O)[O-])CC(=O)[O-])CC(=O)[O-])N(CC(=O)[O-])CC(=O)[O-])cc1.[Gd+3].[Na+].[Na+]` (stereo not drawn) [RC3, gadoxetate disodium], the r1 human plasma is 6.9 L/mmol/s in data set [1] (setting [6]) and 6.2 ± 0.3 L/mmol/s in data set [1] (setting [7]). In addition, the r1 water is 4.7 L/mmol/s in data set [1] (1.5 T, from Rohrer et al.) and 4.3 ± 0.3 L/mmol/s in data set [1] (setting [8]).

As for `O=C([O-])CN1CCN(CC(=O)[O-])CCN(CC(=O)N(CC(=O)NCC(CNC(=O)CN(Cc2ccccc2)C(=O)CN2CCN(CC(=O)[O-])CCN(CC(=O)[O-])CCN(CC(=O)[O-])CC2)(CNC(=O)CN(Cc2ccccc2)C(=O)CN2CCN(CC(=O)[O-])CCN(CC(=O)[O-])CCN(CC(=O)[O-])CC2)CNC(=O)CN(Cc2ccccc2)C(=O)CN2CCN(CC(=O)[O-])CCN(CC(=O)[O-])CCN(CC(=O)[O-])CC2)Cc2ccccc2)CCN(CC(=O)[O-])CC1.[Gd+3].[Gd+3].[Gd+3].[Gd+3]` [Example 10, Tetragadolinium [4,10-bis(carboxylatomethyl)-7-{3,13-dibenzyl-8,8-bis({[(benzyl{[4,7,10-tris(carboxylatomethyl)-1,4,7,10-tetraazacyclododecan-1-yl]acetyl}amino)-acetyl]amino}methyl)-2,5,11,14-tetraoxo-15-[4,7,10-tris(carboxylatomethyl)-1,4,7,10-tetraazacyclododecan-1-yl]-3,6,10,13-tetraazapentadec-1-yl}-1,4,7,10-tetraazacyclo-dodecan-1-yl]acetate], the Solubility in data set [3] is over 1000 mg/100 mL. Besides, the “Diffusion half-live (20 kDa)” value in data set [2] is reported as 15.0 h. For the same compound, in data set [5], the r1 human plasma turned out to be 13.3 L/mmol/s and the r1 water was 11.5 L/mmol/s.

Take `O=C([O-])CN1CCN(CC(=O)[O-])CCN(CC(=O)N(CC(=O)NCC(CNC(=O)CN(C(=O)CN2CCN(CC(=O)[O-])CCN(CC(=O)[O-])CCN(CC(=O)[O-])CC2)c2ccccc2)(CNC(=O)CN(C(=O)CN2CCN(CC(=O)[O-])CCN(CC(=O)[O-])CCN(CC(=O)[O-])CC2)c2ccccc2)CNC(=O)CN(C(=O)CN2CCN(CC(=O)[O-])CCN(CC(=O)[O-])CCN(CC(=O)[O-])CC2)c2ccccc2)c2ccccc2)CCN(CC(=O)[O-])CC1.[Gd+3].[Gd+3].[Gd+3].[Gd+3]` [Example 9, Tetragadolinium [4,10-bis(carboxylatomethyl)-7-{2,5,11,14-tetraoxo-3,13-diphenyl-8,8-bis({[(phenyl{[4,7,10-tris(carboxylatomethyl)-1,4,7,10-tetraazacyclododecan-1-yl]-acetyl}amino)acetyl]amino}methyl)-15-[4,7,10-tris(carboxylatomethyl)-1,4,7,10-tetra-azacyclododecan-1-yl]-3,6,10,13-tetraazapentadec-1-yl}-1,4,7,10-tetraazacyclododecan-1-yl]acetate]: in data set [3], the Solubility is reported as over 1000 mg/100 mL. Further, the “Diffusion half-live (20 kDa)” value in data set [2] was determined as 15.1 h. In data set [5], this compound registered a r1 human plasma of 12.0 L/mmol/s and a r1 water of 11.0 L/mmol/s.
